From paper PMC11062922 (Nature Chemical Biology, 2023)
pIC50: −log10 of the molar value. Like-named read-outs stand apart in the source and are kept apart here.

Tests used:
ACOX1 = target: T1, ACOX1 (Homo sapiens, UniProt Q15067); assay: Kinobeads two-dose competition binding: ACOX1; settings: sheet CATDS matrix 2; Gene Name ACOX1;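 also: competition of compounds with immobilized broad-spectrum kinase inhibitor beads in cell lysate at 100 and 1,000 nM, 45 min at 4 °C, bead-bound protein quantified by label-free MS versus DMSO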
T1 construct: endogenous in cells
T1 sequence (Q15067 1-660): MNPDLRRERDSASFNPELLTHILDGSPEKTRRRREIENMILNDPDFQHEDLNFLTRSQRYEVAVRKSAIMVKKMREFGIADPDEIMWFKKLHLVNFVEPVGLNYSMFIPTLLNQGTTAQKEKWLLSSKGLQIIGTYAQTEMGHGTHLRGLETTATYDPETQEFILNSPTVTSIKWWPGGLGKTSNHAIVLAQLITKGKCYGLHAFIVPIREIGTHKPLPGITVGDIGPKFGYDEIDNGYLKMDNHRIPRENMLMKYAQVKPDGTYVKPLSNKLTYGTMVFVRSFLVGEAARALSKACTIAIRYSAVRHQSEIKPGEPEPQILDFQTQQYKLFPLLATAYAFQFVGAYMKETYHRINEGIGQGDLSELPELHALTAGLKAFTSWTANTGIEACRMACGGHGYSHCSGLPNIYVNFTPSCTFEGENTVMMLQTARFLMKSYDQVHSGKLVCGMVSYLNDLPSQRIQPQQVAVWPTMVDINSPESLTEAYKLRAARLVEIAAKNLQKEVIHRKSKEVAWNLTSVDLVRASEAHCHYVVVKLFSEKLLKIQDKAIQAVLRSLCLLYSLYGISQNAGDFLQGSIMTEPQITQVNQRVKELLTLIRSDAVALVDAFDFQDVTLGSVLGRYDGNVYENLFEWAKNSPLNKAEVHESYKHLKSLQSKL

AAK1 = target: T2, AAK1 (Homo sapiens, UniProt Q2M2I8); assay: Kinobeads two-dose competition binding: AAK1; settings: for CATDS: sheet CATDS matrix 2, Gene Name AAK1;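 as to all read-outs here: kinobeads competition pulldown from cell lysate, compound preincubated 45 min at 4 °C, bead-bound protein measured by label-free mass spectrometry against DMSO vehicle control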
T2 construct: to maximize the representation of endogenous proteins; endogenous in cells

ABL1 [1] = target: T3, ABL1 (Homo sapiens, UniProt P00519); assay: Kinobeads two-dose competition binding: ABL1; settings: sheet CATDS matrix 2; Gene Name ABL1
ABL2 [2] = target: T4, ABL2 (Homo sapiens, UniProt P42684); assay: Kinobeads two-dose competition binding: ABL2; settings: sheet CATDS matrix 2; Gene Name ABL2
T4 construct: endogenous in cells

ACAD11 = target: T5, ACAD11 (Homo sapiens, UniProt Q709F0); assay: Kinobeads two-dose competition binding: ACAD11; settings: sheet CATDS matrix 2; Gene Name ACAD11
T5 construct: endogenous in cells
T5 sequence (Q709F0 1-780): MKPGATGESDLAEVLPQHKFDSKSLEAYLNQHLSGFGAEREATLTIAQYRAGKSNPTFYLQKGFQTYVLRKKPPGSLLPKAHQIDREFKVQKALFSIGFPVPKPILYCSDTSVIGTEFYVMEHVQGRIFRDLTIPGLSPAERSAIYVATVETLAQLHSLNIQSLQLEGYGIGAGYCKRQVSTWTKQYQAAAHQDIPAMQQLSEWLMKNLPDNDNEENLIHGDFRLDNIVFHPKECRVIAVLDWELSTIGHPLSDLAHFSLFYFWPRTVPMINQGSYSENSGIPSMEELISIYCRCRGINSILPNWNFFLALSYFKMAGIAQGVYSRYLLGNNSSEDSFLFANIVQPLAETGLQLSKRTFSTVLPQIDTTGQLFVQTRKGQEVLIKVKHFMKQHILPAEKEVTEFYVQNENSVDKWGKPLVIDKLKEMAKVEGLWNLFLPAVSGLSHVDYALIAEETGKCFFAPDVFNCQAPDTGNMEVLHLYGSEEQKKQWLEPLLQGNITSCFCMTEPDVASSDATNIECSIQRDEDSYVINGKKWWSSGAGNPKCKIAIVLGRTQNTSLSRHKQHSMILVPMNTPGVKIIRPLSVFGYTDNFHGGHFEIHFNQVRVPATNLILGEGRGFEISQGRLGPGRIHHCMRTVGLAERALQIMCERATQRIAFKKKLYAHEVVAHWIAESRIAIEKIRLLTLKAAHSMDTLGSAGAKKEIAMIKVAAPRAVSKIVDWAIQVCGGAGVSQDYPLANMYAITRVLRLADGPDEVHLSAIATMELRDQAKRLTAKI

PKN3 = PKN3 (Homo sapiens, UniProt Q6P5Z2); assay: NanoBRET in-cell target engagement in HEK293T cells: PKN3; format: cell-based; set-up: full-length PKN3, CSNK2A1 or CSNK2A2 ORF; host or cells: HEK293T;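 also: Full-length PKN3 with C-terminal NanoLuc expressed in HEK293T cells, serial inhibitor dilutions competing against Kinase Tracer K5 at 500 nM, BRET read after 2 h at 37 °C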
ABL1 [3] = target: T3, ABL1; assay: Kinobeads two-dose competition binding: ABL1; settings: sheet "Kinobeads Drugmatrix - all"; unit inferred; read-out: Kinobeads Drugmatrix - all: apparent Kd, ABL1
ABL2 [4] = target: T4, ABL2; assay: Kinobeads two-dose competition binding: ABL2; settings: sheet "Kinobeads Drugmatrix - all"; unit inferred; read-out: Kinobeads Drugmatrix - all: apparent Kd, ABL2
[5] = HEK293T cells, in-cell target engagement, read-out: IC50 PKN3 NanoBRET
[6] = average of replicates, read-out: Average of IC50 values NanoBRET PKN3
[7] = biological replicate number 1, read-out: Rep 1 IC50 NanoBRET PKN3
[8] = biological replicate number 2, read-out: Rep 2 IC50 NanoBRET PKN3
[9] = biological replicate number 3, read-out: Rep 3 IC50 NanoBRET PKN3
[10] = biological replicate number 4, read-out: Rep 4 IC50 NanoBRET PKN3

T4 sequence (P42684 whole entry): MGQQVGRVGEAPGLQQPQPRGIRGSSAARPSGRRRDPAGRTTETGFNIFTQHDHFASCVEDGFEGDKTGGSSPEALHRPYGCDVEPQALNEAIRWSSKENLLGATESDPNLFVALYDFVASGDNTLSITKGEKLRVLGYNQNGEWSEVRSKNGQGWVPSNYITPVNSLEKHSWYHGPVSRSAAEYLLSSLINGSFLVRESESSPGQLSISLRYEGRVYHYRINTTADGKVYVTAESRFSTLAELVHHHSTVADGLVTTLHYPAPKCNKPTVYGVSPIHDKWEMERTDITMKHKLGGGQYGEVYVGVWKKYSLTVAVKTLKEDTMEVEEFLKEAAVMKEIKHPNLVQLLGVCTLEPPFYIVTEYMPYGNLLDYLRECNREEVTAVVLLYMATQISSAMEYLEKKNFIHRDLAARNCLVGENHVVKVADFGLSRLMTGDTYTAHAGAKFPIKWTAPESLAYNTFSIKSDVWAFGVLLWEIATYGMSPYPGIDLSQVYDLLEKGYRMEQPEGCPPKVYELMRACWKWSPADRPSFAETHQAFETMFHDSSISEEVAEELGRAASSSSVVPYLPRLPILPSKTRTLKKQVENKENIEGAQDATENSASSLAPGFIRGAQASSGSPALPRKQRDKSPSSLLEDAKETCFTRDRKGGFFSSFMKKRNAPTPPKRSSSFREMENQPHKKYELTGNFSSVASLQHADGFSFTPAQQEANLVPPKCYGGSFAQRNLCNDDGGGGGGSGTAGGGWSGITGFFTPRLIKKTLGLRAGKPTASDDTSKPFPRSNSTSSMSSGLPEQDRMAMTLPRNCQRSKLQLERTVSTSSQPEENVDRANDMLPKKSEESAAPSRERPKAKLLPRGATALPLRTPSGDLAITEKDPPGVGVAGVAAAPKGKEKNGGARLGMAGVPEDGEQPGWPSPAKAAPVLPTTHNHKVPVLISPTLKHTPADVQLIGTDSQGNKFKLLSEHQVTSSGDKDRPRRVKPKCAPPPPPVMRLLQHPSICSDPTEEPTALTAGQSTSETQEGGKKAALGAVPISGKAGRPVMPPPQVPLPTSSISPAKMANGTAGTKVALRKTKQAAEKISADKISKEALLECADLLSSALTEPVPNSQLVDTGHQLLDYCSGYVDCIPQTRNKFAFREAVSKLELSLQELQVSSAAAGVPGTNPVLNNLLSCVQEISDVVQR
Chain of PKN3 (Q6P5Z2 whole entry): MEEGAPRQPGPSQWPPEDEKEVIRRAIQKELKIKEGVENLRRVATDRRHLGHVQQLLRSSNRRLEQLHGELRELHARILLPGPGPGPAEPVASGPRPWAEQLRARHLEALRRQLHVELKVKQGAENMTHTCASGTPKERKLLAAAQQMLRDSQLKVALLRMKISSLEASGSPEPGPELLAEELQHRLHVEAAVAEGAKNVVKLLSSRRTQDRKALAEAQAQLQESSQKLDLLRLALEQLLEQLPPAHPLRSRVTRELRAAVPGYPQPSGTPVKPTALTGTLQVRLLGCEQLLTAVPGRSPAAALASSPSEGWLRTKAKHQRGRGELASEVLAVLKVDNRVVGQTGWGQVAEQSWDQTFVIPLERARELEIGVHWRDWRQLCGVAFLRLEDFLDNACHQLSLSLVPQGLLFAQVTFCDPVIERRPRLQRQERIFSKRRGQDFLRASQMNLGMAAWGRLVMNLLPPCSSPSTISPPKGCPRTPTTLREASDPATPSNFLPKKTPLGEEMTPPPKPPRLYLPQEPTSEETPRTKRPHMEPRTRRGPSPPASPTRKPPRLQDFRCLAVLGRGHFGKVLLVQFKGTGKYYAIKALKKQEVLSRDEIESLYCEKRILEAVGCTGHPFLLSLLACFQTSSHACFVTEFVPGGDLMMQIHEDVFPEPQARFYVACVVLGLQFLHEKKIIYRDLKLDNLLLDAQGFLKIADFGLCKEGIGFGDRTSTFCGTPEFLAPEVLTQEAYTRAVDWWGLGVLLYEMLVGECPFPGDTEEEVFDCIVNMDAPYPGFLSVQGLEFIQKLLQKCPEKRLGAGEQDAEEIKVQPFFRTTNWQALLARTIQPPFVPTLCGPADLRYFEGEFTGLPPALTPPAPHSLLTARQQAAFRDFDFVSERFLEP
T2 sequence (Q2M2I8 whole entry): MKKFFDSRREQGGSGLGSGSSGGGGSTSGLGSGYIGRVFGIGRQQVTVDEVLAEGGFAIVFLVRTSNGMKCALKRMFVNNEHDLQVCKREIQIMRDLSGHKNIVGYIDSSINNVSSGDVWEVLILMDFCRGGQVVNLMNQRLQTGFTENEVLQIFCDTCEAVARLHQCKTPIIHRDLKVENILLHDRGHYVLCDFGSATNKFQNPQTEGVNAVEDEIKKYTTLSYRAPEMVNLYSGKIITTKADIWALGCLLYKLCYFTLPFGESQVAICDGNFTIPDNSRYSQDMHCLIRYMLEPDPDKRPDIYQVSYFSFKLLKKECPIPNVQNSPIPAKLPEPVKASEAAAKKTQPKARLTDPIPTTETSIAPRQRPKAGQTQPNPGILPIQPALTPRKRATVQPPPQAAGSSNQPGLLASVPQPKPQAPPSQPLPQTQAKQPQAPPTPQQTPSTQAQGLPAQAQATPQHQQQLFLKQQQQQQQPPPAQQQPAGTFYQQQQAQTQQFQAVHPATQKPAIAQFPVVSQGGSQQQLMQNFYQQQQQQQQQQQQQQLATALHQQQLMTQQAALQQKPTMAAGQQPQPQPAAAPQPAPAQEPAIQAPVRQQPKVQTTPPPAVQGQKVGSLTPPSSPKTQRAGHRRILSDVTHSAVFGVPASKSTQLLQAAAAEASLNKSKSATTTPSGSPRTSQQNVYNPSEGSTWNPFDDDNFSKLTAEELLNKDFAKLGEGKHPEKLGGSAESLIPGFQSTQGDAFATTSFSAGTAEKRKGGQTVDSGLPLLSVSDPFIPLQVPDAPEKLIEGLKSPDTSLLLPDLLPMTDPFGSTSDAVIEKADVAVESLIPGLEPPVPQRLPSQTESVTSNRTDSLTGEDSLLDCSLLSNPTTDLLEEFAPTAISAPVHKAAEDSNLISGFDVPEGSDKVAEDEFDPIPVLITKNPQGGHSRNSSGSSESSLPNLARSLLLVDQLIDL
T3 sequence (P00519 28-1130 limits assumed): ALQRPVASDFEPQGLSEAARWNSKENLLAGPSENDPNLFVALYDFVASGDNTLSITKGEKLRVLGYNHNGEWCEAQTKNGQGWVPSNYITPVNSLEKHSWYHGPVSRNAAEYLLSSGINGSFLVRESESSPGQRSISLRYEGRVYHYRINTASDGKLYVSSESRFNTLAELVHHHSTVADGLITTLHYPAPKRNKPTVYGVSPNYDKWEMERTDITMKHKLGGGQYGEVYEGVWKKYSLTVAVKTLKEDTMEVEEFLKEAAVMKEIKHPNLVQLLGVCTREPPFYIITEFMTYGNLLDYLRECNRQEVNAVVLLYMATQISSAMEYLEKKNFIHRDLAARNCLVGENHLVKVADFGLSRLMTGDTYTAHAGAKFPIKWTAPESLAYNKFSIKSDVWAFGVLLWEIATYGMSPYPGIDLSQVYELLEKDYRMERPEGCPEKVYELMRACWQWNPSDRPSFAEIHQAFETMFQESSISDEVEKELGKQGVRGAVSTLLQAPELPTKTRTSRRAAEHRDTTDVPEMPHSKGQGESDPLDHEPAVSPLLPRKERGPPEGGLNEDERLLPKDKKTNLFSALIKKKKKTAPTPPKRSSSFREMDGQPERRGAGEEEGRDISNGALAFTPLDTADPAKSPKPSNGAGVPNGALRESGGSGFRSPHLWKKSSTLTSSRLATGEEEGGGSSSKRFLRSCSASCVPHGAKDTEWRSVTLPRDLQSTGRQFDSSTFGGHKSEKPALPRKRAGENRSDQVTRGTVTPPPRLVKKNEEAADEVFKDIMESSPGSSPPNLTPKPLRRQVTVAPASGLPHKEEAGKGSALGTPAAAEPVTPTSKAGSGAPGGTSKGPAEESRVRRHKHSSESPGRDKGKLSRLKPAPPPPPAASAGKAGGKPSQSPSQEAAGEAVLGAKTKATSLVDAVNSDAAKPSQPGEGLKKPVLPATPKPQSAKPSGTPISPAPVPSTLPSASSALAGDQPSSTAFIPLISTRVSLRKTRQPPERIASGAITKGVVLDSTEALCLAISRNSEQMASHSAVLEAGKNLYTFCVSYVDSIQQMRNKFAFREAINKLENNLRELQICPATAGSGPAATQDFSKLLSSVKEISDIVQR

CATDS (ACOX1) | CATDS (AAK1) | CATDS (ABL1 [1]) | CATDS (ABL2 [2]) | CATDS (ACAD11) | pIC50 (PKN3; [5]) | potency estimated from few doses (ABL2 [4]) [nM] | pIC50 (PKN3; [6]) | pIC50 (PKN3; [7]) | pIC50 (PKN3; [8]) | pIC50 (PKN3; [9]) | pIC50 (PKN3; [10]) | Structure (SMILES) | potency estimated from few doses (ABL1 [3]) [nM] | potency estimated from few doses (AAK1; read-out: Kinobeads Drugmatrix - all: apparent Kd, AAK1) [nM]
0 | 0 | 0 | 0 | 0 | 5.69 | – | – | – | – | – | – | NC[C@@](O)(c1ccc(Cl)cc1)c1ccc(-c2cn[nH]c2)cc1 [AT-13148, reference compound] | – | –
0 | 0 | 0.04923 | 0 | 0 | – | – | – | – | – | – | – | COc1cc2nccc(Nc3ccc(Oc4ccccc4)cc3)c2cc1OC [GI261656A] | 661 | –
0 | 0 | 0 | 0.03238 | 0 | – | 956 | – | – | – | – | – | COc1cc2ncn(-c3cc(OCCCc4ccccc4)c(C(N)=O)s3)c2cc1OC [GSK205189A] | – | –
– | – | – | – | – | 7.13 | – | 7.65 | 7.13 | 8.21 | 8.21 | 8.47 | CCn1c(-c2nonc2N)nc2c(-c3ccccc3)ncc(OCCCN)c21 [GSK260205A] | – | –
– | – | – | – | – | – | – | 5.10 | 4.89 | 4.95 | 5.31 | 5.55 | CCn1c(-c2nonc2N)nc2c(C#CCN)ncc(OCCCN)c21 [GSK561866B] | – | –
– | – | – | – | – | – | – | 7.01 | 6.51 | 7.51 | 7.55 | 7.65 | CCn1c(-c2nonc2N)nc2c(C#CC(C)(C)O)nc(OC[C@@H](N)c3ccccc3)cc21 [GSK938890A] | – | –
0 | 0 | 0 | 0 | 0 | 4.96 | – | 5.16 | 4.95 | 5.04 | 5.21 | 5.84 | CCn1c(-c2nonc2N)nc2c(C#CC(C)(C)O)nc(CN3CCCC3)cc21 [GSK1000163A] | – | –
0 | 0 | 0 | 0 | 0 | – | – | – | – | – | – | – | O=c1cc(N2CCOCC2)nc2n(Cc3cccc(C(F)(F)F)c3)ccn12 [GSK2297543A] | – | –
0 | 0 | 0 | 0 | 0 | – | – | – | – | – | – | – | CNc1nc(-c2ccc3c(N)n[nH]c3c2)cc(N2C[C@@H](C(=O)Nc3ccccc3)CC[C@H]2C)n1 [GSK2298859A] | – | –
0 | 0 | 0 | 0 | 0 | – | – | – | – | – | – | – | O=c1cc(N2CCOCC2)nc2n(Cc3cccc(Cl)c3Cl)c3ccccc3n12 [GSK2299009A] | – | –
0 | 0 | 0 | 0 | 0 | – | – | – | – | – | – | – | Cc1c(Cn2c3ccccc3n3c(=O)cc(N4CCOCC4)nc23)cccc1C(F)(F)F [GSK2306394A] | – | –
0 | 0 | 0 | 0 | 0 | – | – | – | – | – | – | – | Cc1c(Cn2c(C)c(C)n3c(=O)cc(N4CCOCC4)nc23)cccc1C(F)(F)F [GSK2328680_KCGS] | – | –
0 | 0 | 0 | 0 | 0 | – | – | – | – | – | – | – | O=c1cc(N2CCOCC2)nc2n(Cc3cccc4ccccc34)ccn12 [GSK2333389A] | – | –
0 | 0 | 0 | 0 | 0 | – | – | – | – | – | – | – | Cc1cn2c(=O)cc(N3CCOCC3)nc2n1Cc1cccc(Cl)c1Cl [GSK2334006A] | – | –
0 | 0 | 0 | 0 | 0 | – | – | – | – | – | – | – | Cc1c(Cn2ccn3c(=O)nc(N4CCOCC4)cc23)cccc1C(F)(F)F [GSK2336394A] | – | –
0 | 0 | 0 | 0 | 0 | – | – | – | – | – | – | – | Cc1nn2c(=O)cc(N3CCOCC3)nc2n1Cc1cccc(Cl)c1Cl [GSK2342769A] | – | –
0 | 0 | 0 | 0 | 0 | – | – | – | – | – | – | – | Cc1c(Cn2c(C)nn3c(=O)cc(N4CCOC(C)C4)nc23)cccc1C(F)(F)F (centres unmarked) [GSK2344444A] | – | –
0 | 0 | 0 | 0 | 0 | – | – | – | – | – | – | – | CSc1nn2c(=O)cc(N3CCOCC3)nc2n1Cc1cccc(Cl)c1Cl [GSK2347225A] | – | –
0 | 0 | 0 | 0 | 0 | – | – | – | – | – | – | – | O=c1cc(N2CCOCC2)nc2n(Cc3cccc(Cl)c3Cl)c(C3CC3)nn12 [GSK2358994A] | – | –
0 | 0 | 0 | 0 | 0 | – | – | – | – | – | – | – | CSc1nn2c(=O)cc(N3CCOCC3)nc2n1Cc1cccc(C(F)(F)F)c1C [GSK2363608B] | – | –
– | – | – | – | – | – | – | 6.04 | 5.68 | 6.26 | – | 7.13 | COc1cccc2c(-c3ccncc3)c(-c3ccc(F)cc3)nn12 [GW468513X] | – | –
– | – | – | – | – | – | – | 4.57 | – | 6.04 | – | 6.59 | Cc1cccc2c(-c3ccncn3)c(-c3ccc(F)cc3)nn12 [GW515532X] | – | –
– | – | – | – | – | 5.39 | – | 5.80 | 5.38 | 6.33 | – | 7.06 | Cc1cccc(-c2nc(Nc3ccncc3)c3sccc3n2)n1 [GW869641X] | – | –
– | – | – | – | – | – | – | 6.29 | 6.27 | 5.91 | 6.95 | 6.76 | CNc1ncc2cc(-c3cc(NC(=O)NCCC(C)(C)C)c(F)cc3C)c(C)nc2n1 [LY3009120, reference compound] | – | –
– | – | – | – | – | 5.10 | – | 5.63 | 5.10 | 6.02 | 6.79 | 6.53 | Fc1ccc(-c2c(-c3ccncc3)[nH]c3cccnc23)cc1 [RO1153853-000] | – | –
– | – | – | – | – | – | – | 4.64 | 4.72 | 4.69 | 4.30 | 5.74 | ON=C1CCc2cc(-c3nc(C4CCNCC4)[nH]c3-c3ccncc3)ccc21 [SB-614067-R] | – | –
– | – | – | – | – | – | – | < 4.30 | < 4.30 | < 4.30 | < 4.30 | < 4.30 | CCOc1nccc2c1nc(-c1nonc1N)n2CC [SB-737198] | – | –

Structure (SMILES) | CATDS (ACOX1) | CATDS (AAK1) | CATDS (ABL1 [1]) | CATDS (ABL2 [2]) | CATDS (ACAD11) | pIC50 (PKN3; [5]) | potency estimated from few doses (ABL2 [4]) [nM] | pIC50 (PKN3; [6]) | pIC50 (PKN3; [7]) | pIC50 (PKN3; [8]) | pIC50 (PKN3; [9]) | pIC50 (PKN3; [10]) | potency estimated from few doses (ABL1 [3]) [nM] | potency estimated from few doses (AAK1; read-out: Kinobeads Drugmatrix - all: apparent Kd, AAK1) [nM]
CNC(=O)c1ccccc1Nc1nc(Nc2ccc(N3CCOCC3)cc2)ncc1Cl [GSK1576028A] | 0 | 0.02054 | 0 | 0 | 0 | – | – | – | – | – | – | – | > 1000 | 142
Cc1cccc(Cn2ccn3c(=O)cc(N4CCOCC4)nc23)c1 [GSK2297542A] | 0 | 0 | 0 | 0 | 0 | – | – | – | – | – | – | – | – | –
